From the NIST ThermoML archive (doi:10.1016/j.tca.2014.10.002)
Several values for one entry are separate records, joined by “and”; a condition that tells them apart may be missing. Equal values may be shown once. ± gives the expanded uncertainty stated by the source.

Columns and labels:
[1] = molar heat capacity at constant pressure; settings: 101.33 kPa
[2] = DTA
[3] = Molar enthalpy of transition or fusion; settings: DSC

OC1CCCCCCC1 [cyclooctanol]
molar heat capacity at constant pressure ([1]; 261.1 K, Crystal 1, Large sample (1 g) DSC): 235.9 ± 4.1 J/K/mol | molar heat capacity at constant pressure ([1]; 261.23 K, Crystal 1, Large sample (1 g) DSC): 236.1 ± 4.1 J/K/mol | molar heat capacity at constant pressure ([1]; 264 K, Crystal 1, Large sample (1 g) DSC): 238.7 ± 4.1 J/K/mol and 238.8 ± 4.1 J/K/mol | molar heat capacity at constant pressure ([1]; 267 K, Crystal 1, Large sample (1 g) DSC): 241.8 ± 4.2 J/K/mol and 241.9 ± 4.2 J/K/mol | molar heat capacity at constant pressure ([1]; 270 K, Crystal 1, Large sample (1 g) DSC): 245.1 ± 4.2 J/K/mol and 245.3 ± 4.3 J/K/mol | molar heat capacity at constant pressure ([1]; 273 K, Crystal 1, Large sample (1 g) DSC): 248.9 ± 4.3 J/K/mol and 249 ± 4.3 J/K/mol | molar heat capacity at constant pressure ([1]; 276 K, Crystal 1, Large sample (1 g) DSC): 252.7 ± 4.4 J/K/mol and 252.8 ± 4.4 J/K/mol | molar heat capacity at constant pressure ([1]; 279 K, Crystal 1, Large sample (1 g) DSC): 256.9 ± 4.5 J/K/mol | molar heat capacity at constant pressure ([1]; 282 K, Crystal 1, Large sample (1 g) DSC): 261.4 ± 4.5 J/K/mol and 261.5 ± 4.5 J/K/mol | molar heat capacity at constant pressure ([1]; 283.88 K, Crystal 1, Large sample (1 g) DSC): 264.3 ± 4.6 J/K/mol | molar heat capacity at constant pressure ([1]; 284.25 K, Crystal 1, Large sample (1 g) DSC): 265.2 ± 4.6 J/K/mol | molar heat capacity at constant pressure ([1]; 301.94 K, Liquid, Large sample (1 g) DSC): 295.6 ± 5.1 J/K/mol | molar heat capacity at constant pressure ([1]; 302.06 K, Liquid, Large sample (1 g) DSC): 295.8 ± 5.1 J/K/mol | molar heat capacity at constant pressure ([1]; 305 K, Liquid, Large sample (1 g) DSC): 299.1 ± 5.2 J/K/mol | molar heat capacity at constant pressure ([1]; 310 K, Liquid, Large sample (1 g) DSC): 304.6 ± 5.3 J/K/mol | molar heat capacity at constant pressure ([1]; 315 K, Liquid, Large sample (1 g) DSC): 310.1 ± 5.4 J/K/mol and 310 ± 5.4 J/K/mol | molar heat capacity at constant pressure ([1]; 318.15 K, Liquid, Small sample (50 mg) DSC): 313.1 ± 5.4 J/K/mol | molar heat capacity at constant pressure ([1]; 320 K, Liquid, Large sample (1 g) DSC): 315.1 ± 5.5 J/K/mol | molar heat capacity at constant pressure ([1]; 323.14 K, Liquid, Small sample (50 mg) DSC): 318.2 ± 5.5 J/K/mol | molar heat capacity at constant pressure ([1]; 325 K, Liquid, Large sample (1 g) DSC): 320.2 ± 5.5 J/K/mol | molar heat capacity at constant pressure ([1]; 328.14 K, Liquid, Small sample (50 mg) DSC): 323.1 ± 5.6 J/K/mol | molar heat capacity at constant pressure ([1]; 330 K, Liquid, Large sample (1 g) DSC): 325 ± 5.6 J/K/mol and 324.9 ± 5.6 J/K/mol | molar heat capacity at constant pressure ([1]; 333.14 K, Liquid, Small sample (50 mg) DSC): 327.7 ± 5.7 J/K/mol | molar heat capacity at constant pressure ([1]; 335 K, Liquid, Large sample (1 g) DSC): 329.4 ± 5.7 J/K/mol and 329.3 ± 5.7 J/K/mol | molar heat capacity at constant pressure ([1]; 338.14 K, Liquid, Small sample (50 mg) DSC): 332.6 ± 5.8 J/K/mol | molar heat capacity at constant pressure ([1]; 340 K, Liquid, Large sample (1 g) DSC): 333.7 ± 5.8 J/K/mol | molar heat capacity at constant pressure ([1]; 343.14 K, Liquid, Small sample (50 mg) DSC): 337 ± 5.8 J/K/mol | molar heat capacity at constant pressure ([1]; 345 K, Liquid, Large sample (1 g) DSC): 338.4 ± 5.9 J/K/mol and 338.3 ± 5.9 J/K/mol | molar heat capacity at constant pressure ([1]; 348.13 K, Liquid, Small sample (50 mg) DSC): 341.1 ± 5.9 J/K/mol | molar heat capacity at constant pressure ([1]; 350 K, Liquid, Large sample (1 g) DSC): 343 ± 5.9 J/K/mol and 342.9 ± 5.9 J/K/mol | molar heat capacity at constant pressure ([1]; 353.13 K, Liquid, Small sample (50 mg) DSC): 345.4 ± 12 J/K/mol | molar heat capacity at constant pressure ([1]; 355 K, Liquid, Large sample (1 g) DSC): 347.1 ± 6 J/K/mol and 347 ± 6 J/K/mol | molar heat capacity at constant pressure ([1]; 357.87 K, Liquid, Large sample (1 g) DSC): 349.1 ± 6 J/K/mol | molar heat capacity at constant pressure ([1]; 357.94 K, Liquid, Large sample (1 g) DSC): 349.1 ± 6 J/K/mol | molar heat capacity at constant pressure ([1]; 358.13 K, Liquid, Small sample (50 mg) DSC): 349.5 ± 12 J/K/mol | molar heat capacity at constant pressure ([1]; 363.12 K, Liquid, Small sample (50 mg) DSC): 353.5 ± 12 J/K/mol | molar heat capacity at constant pressure ([1]; 366.11 K, Liquid, Small sample (50 mg) DSC): 355.8 ± 12 J/K/mol | molar heat capacity at constant pressure ([1]; 369.12 K, Liquid, Small sample (50 mg) DSC): 357.9 ± 12 J/K/mol | molar heat capacity at constant pressure ([1]; 372.13 K, Liquid, Small sample (50 mg) DSC): 359.6 ± 12 J/K/mol | molar heat capacity at constant pressure ([1]; 375.14 K, Liquid, Small sample (50 mg) DSC): 361.4 ± 12 J/K/mol | molar heat capacity at constant pressure ([1]; 378.12 K, Liquid, Small sample (50 mg) DSC): 363 ± 12 J/K/mol | molar heat capacity at constant pressure ([1]; 381.14 K, Liquid, Small sample (50 mg) DSC): 364.4 ± 12 J/K/mol | molar heat capacity at constant pressure ([1]; 384.12 K, Liquid, Small sample (50 mg) DSC): 365.8 ± 12 J/K/mol | molar heat capacity at constant pressure ([1]; 387.13 K, Liquid, Small sample (50 mg) DSC): 366.9 ± 12 J/K/mol | molar heat capacity at constant pressure ([1]; 390.11 K, Liquid, Small sample (50 mg) DSC): 367.8 ± 12 J/K/mol | molar heat capacity at constant pressure ([1]; 393.12 K, Liquid, Small sample (50 mg) DSC): 368.7 ± 12 J/K/mol | molar heat capacity at constant pressure ([1]; 396.14 K, Liquid, Small sample (50 mg) DSC): 369.4 ± 12 J/K/mol | molar heat capacity at constant pressure ([1]; 399.12 K, Liquid, Small sample (50 mg) DSC): 370 ± 12 J/K/mol | molar heat capacity at constant pressure ([1]; 402.13 K, Liquid, Small sample (50 mg) DSC): 371 ± 12 J/K/mol | molar heat capacity at constant pressure ([1]; 405.12 K, Liquid, Small sample (50 mg) DSC): 371.6 ± 12 J/K/mol | molar heat capacity at constant pressure ([1]; 408.13 K, Liquid, Small sample (50 mg) DSC): 371.9 ± 12 J/K/mol | molar heat capacity at constant pressure ([1]; 411.11 K, Liquid, Small sample (50 mg) DSC): 372.3 ± 12 J/K/mol | molar heat capacity at constant pressure ([1]; 414.12 K, Liquid, Small sample (50 mg) DSC): 372.6 ± 12 J/K/mol | molar heat capacity at constant pressure ([1]; 417.13 K, Liquid, Small sample (50 mg) DSC): 372.9 ± 12 J/K/mol | molar heat capacity at constant pressure ([1]; 420.12 K, Liquid, Small sample (50 mg) DSC): 373.1 ± 12 J/K/mol | molar heat capacity at constant pressure ([1]; 423.13 K, Liquid, Small sample (50 mg) DSC): 373.2 ± 12 J/K/mol | molar heat capacity at constant pressure ([1]; 426.11 K, Liquid, Small sample (50 mg) DSC): 373.2 ± 12 J/K/mol | molar heat capacity at constant pressure ([1]; 429.19 K, Liquid, Small sample (50 mg) DSC): 373.2 ± 12 J/K/mol | molar heat capacity at constant pressure ([1]; 432.31 K, Liquid, Small sample (50 mg) DSC): 373.2 ± 12 J/K/mol | molar heat capacity at constant pressure ([1]; 435.12 K, Liquid, Small sample (50 mg) DSC): 373.2 ± 12 J/K/mol | molar heat capacity at constant pressure ([1]; 438.13 K, Liquid, Small sample (50 mg) DSC): 373 ± 12 J/K/mol | molar heat capacity at constant pressure ([1]; 441.14 K, Liquid, Small sample (50 mg) DSC): 372.8 ± 12 J/K/mol | molar heat capacity at constant pressure ([1]; 444.13 K, Liquid, Small sample (50 mg) DSC): 372.8 ± 12 J/K/mol | molar heat capacity at constant pressure ([1]; 447.14 K, Liquid, Small sample (50 mg) DSC): 372.7 ± 12 J/K/mol | molar heat capacity at constant pressure ([1]; 450.12 K, Liquid, Small sample (50 mg) DSC): 372.5 ± 12 J/K/mol | molar heat capacity at constant pressure ([1]; 453.13 K, Liquid, Small sample (50 mg) DSC): 372.6 ± 12 J/K/mol | molar heat capacity at constant pressure ([1]; 456.14 K, Liquid, Small sample (50 mg) DSC): 372.6 ± 12 J/K/mol | molar heat capacity at constant pressure ([1]; 459.13 K, Liquid, Small sample (50 mg) DSC): 372.6 ± 12 J/K/mol | molar heat capacity at constant pressure ([1]; 462.14 K, Liquid, Small sample (50 mg) DSC): 373 ± 12 J/K/mol | molar heat capacity at constant pressure ([1]; 465.12 K, Liquid, Small sample (50 mg) DSC): 373.5 ± 12 J/K/mol | molar heat capacity at constant pressure ([1]; 468.14 K, Liquid, Small sample (50 mg) DSC): 374.1 ± 12 J/K/mol | molar heat capacity at constant pressure ([1]; 471.14 K, Liquid, Small sample (50 mg) DSC): 374.6 ± 12 J/K/mol | Triple point temperature ([2]; Crystal 1): 296.78 ± 0.42 K | Triple point temperature ([2]; Crystal 2): 263.56 ± 0.39 K | Molar enthalpy of transition or fusion ([3]; Crystal 1): 0.457 ± 0.0765 kcal/mol | Molar enthalpy of transition or fusion ([3]; Crystal 2): 0.507 ± 0.0765 kcal/mol
